Data set [1] has as its system Mycobacterium tuberculosis. Description: Antimycobacterial activity against drug-sensitive Mycobacterium tuberculosis H37Rv measured after 7 days by resazurin dye-based assay. The class given is functional. The conditions noted are these: 168 h. On the technique in general: Alamar Blue is a resazurin reagent that responds to reducing activity.
Data set [2] relates to ARPE-19. As to the kind of experiment: Cytotoxicity against human ARPE19 cells assessed as effect on cell viability at 100 uM after 48 hrs in normoxic condition by MTT assay. The class given is cell-based. The conditions noted are these: arpe-19, 48 h. On the technique in general: Tetrazolium dyes change colour on reduction, which living cells bring about.
Data set [3] can be described thus: Toxicity in po dosed C57BL6 mouse administered via metal gavage measured daily over 14 days. The format is organism-based. The conditions noted are these: in vivo.
Data set [4] in a line: Toxicity in C57BL6 mouse assessed as mortality at 900 mg/kg, po administered via metal gavage measured daily over 14 days. The conditions noted are these: in vivo, 336 h. The class given is organism-based.
Data set [5] deals with Acinetobacter baumannii. As to the kind of experiment: Antibacterial activity against Acinetobacter baumannii assessed as bacterial growth inhibition zone diameter at 5 ug after 18 hrs by Kirby-Bauer disk diffusion method. The class given is functional. The conditions noted are these: read-out: DIZ.
Data set [6] in a line: Toxicity in C57BL6 mouse assessed as mortality at 400 mg/kg, po administered via metal gavage measured daily over 14 days. The format is organism-based. The conditions noted are these: in vivo, 336 h.
In data set [7] the test system is Klebsiella aerogenes. As to the kind of experiment: Antibacterial activity against Enterobacter aerogenes assessed as bacterial growth inhibition zone diameter at 5 ug after 18 hrs by Kirby-Bauer disk diffusion method. The class given is functional. The conditions noted are these: read-out: DIZ.
Data set [8] deals with Klebsiella pneumoniae. Description: Antibacterial activity against Klebsiella pneumoniae assessed as bacterial growth inhibition zone diameter at 5 ug after 18 hrs by Kirby-Bauer disk diffusion method. The class given is functional. The conditions noted are these: read-out: DIZ. On the technique in general: Agar diffusion results depend on both activity and mobility in agar.

Data set [9] relates to Pseudomonas aeruginosa. As to the kind of experiment: Antibacterial activity against Pseudomonas aeruginosa assessed as bacterial growth inhibition zone diameter at 5 ug after 18 hrs by Kirby-Bauer disk diffusion method. The format is functional. The conditions noted are these: read-out: DIZ.
In data set [10] the test system is Staphylococcus aureus. Description: Antibacterial activity against Staphylococcus aureus assessed as bacterial growth inhibition zone diameter at 5 ug after 18 hrs by Kirby-Bauer disk diffusion method. The class given is functional. The conditions noted are these: read-out: DIZ.
In data set [11] the test system is ARPE-19. As to the kind of experiment: Cytotoxicity against human ARPE19 cells assessed as effect on cell viability at 10 to 100 uM after 48 hrs in normoxic condition by MTT assay. The format is cell-based. The conditions noted are these: arpe-19, 48 h.
Data set [12] deals with Enterococcus faecium. Description: Antibacterial activity against Enterococcus faecium assessed as bacterial growth inhibition zone diameter at 5 ug after 18 hrs by Kirby-Bauer disk diffusion method. The class given is functional. The conditions noted are these: read-out: DIZ.

In brackets after ≈: the same amount, converted by molar mass.

In the case of `COc1ccc(CC2CCOC3(CCN(C(=O)c4ccc([N+](=O)[O-])o4)CC3)C2)cc1` (centres undefined), in data set [1], the MIC – broadly, the smallest concentration in the dilution series that meets the test's criterion for growth inhibition – worked out at 3.1 µg/mL (≈ 7.48 µM). Further, the Activity entry in data set [2] is given as “Toxic”. `Cc1cccc(S(=O)(=O)NC2CCOC3(CCN(C(=O)c4ccc([N+](=O)[O-])o4)CC3)C2)c1` (centres undefined) had an MIC in data set [1] of 50 µg/mL (≈ 108 µM).

In turn, `CS(=O)(=O)NC1CCOC2(CCN(C(=O)c3ccc([N+](=O)[O-])o3)CC2)C1` (centres undefined) yielded an MIC in [1] of over 100 µg/mL. Take `Cl.NC1CCOC2(CCN(C(=O)c3ccc([N+](=O)[O-])o3)CC2)C1` (centres undefined): in [1], the MIC was over 100 µg/mL. On to `O=C(c1ccc([N+](=O)[O-])o1)N1CCC2(CC1)CC(NS(=O)(=O)c1ccc(F)cc1)CCO2` (centres undefined), for which inhibition of growth in data set [1] (MIC) required 50 µg/mL (≈ 107 µM).

Take `CNC(=O)CC1CCOC2(CCN(C(=O)c3ccc([N+](=O)[O-])o3)CC2)C1` (centres undefined): in [1], the minimal inhibitory concentration (MIC) was over 100 µg/mL. Take `O=C(c1ccc([N+](=O)[O-])o1)N1CCC2(CC1)CC(Cc1nc(-c3cccnc3)no1)CCO2` (centres undefined): the LD50 (commonly the dose expected to kill half of the subjects tested) at 336 h in data set [3] (C57BL6, mouse) came out at 617 mg/kg. In addition, the LD16 in data set [3] (mouse, 336 h) turned out to be 198 mg/kg. Besides, the LD84 in data set [3] (mouse, 336 h) worked out at 787.5 mg/kg. The molecule further had an LD100 in [3] (mouse, 336 h) of 900 mg/kg. The Activity result in data set [4] is recorded as “Toxic”; in data set [6], “Non-Toxic”; in data set [11] it was “Non-Toxic”. For the same molecule, the MIC in data set [1] amounted to 1.6 µg/mL (≈ 3.53 µM). The zone of inhibition at 5 µg/disc in data set [5], in data set [7], in data set [8], in [9], in data set [10] and in data set [12] was 0 mm each time. Turning to `O=C(c1ccc([N+](=O)[O-])o1)N1CCC2(CCCCO2)CC1`, in data set [1], the lowest concentration to inhibit growth (MIC) was 3.1 µg/mL (≈ 10.5 µM). Further, in data set [11], the Activity result is “Non-Toxic”. Consider `O=C(c1ccc([N+](=O)[O-])o1)N1CCC2(CC1)CC(Oc1ccncc1)CCO2` (centres undefined), for which it took 25 µg/mL (≈ 64.5 µM) to inhibit growth in [1] (MIC). Turning to `COCCc1noc(CC2CCOC3(CCN(C(=O)c4ccc([N+](=O)[O-])o4)CC3)C2)n1` (centres undefined), in data set [1], the minimum inhibitory concentration (MIC) stood at 6.2 µg/mL (≈ 14.3 µM). Besides, in data set [11], the Activity entry was “Non-Toxic”.

`O=C(c1ccc([N+](=O)[O-])o1)N1CCC2(CC1)CC(NS(=O)(=O)c1ccc(Br)cc1)CCO2` (centres undefined) came in with an MIC in [1] of 25 µg/mL (≈ 47.3 µM). Molecule `O=C(c1ccc([N+](=O)[O-])o1)N1CCC2(CC1)CC(Cc1ccc(F)cc1)CCO2` (centres undefined) displayed an MIC in data set [1] of 12.5 µg/mL (≈ 31.1 µM). Turning to `O=C(c1ccc([N+](=O)[O-])o1)N1CCC2(CC1)CC(NS(=O)(=O)c1ccccc1F)CCO2` (centres undefined), in [1], it took 50 µg/mL (≈ 107 µM) to inhibit growth (MIC). Compared with the last molecule, the MIC is about 4-fold higher. In data set [1], `CCOC1CCOC2(CCN(C(=O)c3ccc([N+](=O)[O-])o3)CC2)C1` (centres undefined) came in with an MIC of 50 µg/mL (≈ 148 µM).

As for `O=C(c1ccc([N+](=O)[O-])o1)N1CCC2(CC1)CC(NS(=O)(=O)c1ccccc1)CCO2` (centres undefined), the MIC in data set [1] was 50 µg/mL (≈ 111 µM). On to `O=C(c1ccc([N+](=O)[O-])o1)N1CCC2(CC1)CC(OCc1ccc(F)cc1)CCO2` (centres undefined), for which the minimum inhibitory concentration (MIC) in [1] stood at 3.1 µg/mL (≈ 7.41 µM). For the same molecule, in data set [11], the Activity entry was “Non-Toxic”. `O=C(c1ccc([N+](=O)[O-])o1)N1CCC2(CC1)CC(OCC1CC1)CCO2` (centres undefined) returned an MIC in data set [1] of 25 µg/mL (≈ 68.6 µM). As for `O=C(c1ccc([N+](=O)[O-])o1)N1CCC2(CC1)CC(N1CCOCC1)CCO2` (centres undefined), in data set [1], the MIC is over 100 µg/mL. In [1], `O=C(c1ccc([N+](=O)[O-])o1)N1CCC2(CC1)CC(Cc1nc(C3CC3)no1)CCO2` (centres undefined) returned an MIC of 3.1 µg/mL (≈ 7.44 µM). Moreover, the Activity entry in data set [11] is on record as “Non-Toxic”. Regarding `CC(C)(C)OC(=O)NC1CCOC2(CCN(C(=O)c3ccc([N+](=O)[O-])o3)CC2)C1` (centres undefined), inhibition of growth in data set [1] (MIC) required 25 µg/mL (≈ 61.1 µM). The molecule `CN(Cc1ccccc1)C(=O)CC1CCOC2(CCN(C(=O)c3ccc([N+](=O)[O-])o3)CC2)C1` (centres undefined) returned an MIC in data set [1] of 12.5 µg/mL (≈ 27.4 µM). Compared with the last molecule, the MIC is about 2-fold lower. For `Cc1ccc(CC2CCOC3(CCN(C(=O)c4ccc([N+](=O)[O-])o4)CC3)C2)cc1` (centres undefined), the lowest concentration to inhibit growth in data set [1] (MIC) was 3.1 µg/mL (≈ 7.78 µM). For the same molecule, the Activity entry in [2] is reported as “Toxic”. Molecule `COc1ccc(S(=O)(=O)NC2CCOC3(CCN(C(=O)c4ccc([N+](=O)[O-])o4)CC3)C2)cc1` (centres undefined) displayed an MIC in [1] of 50 µg/mL (≈ 104 µM).

In data set [1], `O=C(c1ccc([N+](=O)[O-])o1)N1CCC2(CC1)CC(NS(=O)(=O)c1ccc(F)c(Cl)c1)CCO2` (centres undefined) had an MIC of 25 µg/mL (≈ 49.8 µM). This MIC lies about 2-fold lower than the previous one. As for `O=C(O)c1cn(C2CC2)c2cc(N3CCNCC3)c(F)cc2c1=O` [CIPROFLOXACIN], the zone of inhibition at 5 µg/disc in data set [5] was 30 mm; in data set [7] it was 25 mm; in data set [8], 25 mm; in data set [9] it was 23 mm; in data set [10] it was 23 mm; in data set [12] it was 23 mm.

Values taken from ChEMBL document CHEMBL4316589, “Attachment of a 5-nitrofuroyl moiety to spirocyclic piperidines produces non-toxic nitrofurans that are efficacious in vitro against multidrug-resistant Mycobacterium tuberculosis” (Eur J Med Chem, 2019).
